{"source": "patent US9695155B2", "about": "“Herbicidal substituted pyrimidinyloxy benzene compounds” (E. I. DU PONT DE NEMOURS AND COMPANY, priority 2013, dated 2017)", "key": {"velvetleaf": {"test_system": "velvetleaf", "test": "Test C preemergence", "format": "in vivo, Abutilon theophrasti", "details": "Abutilon theophrasti, pre-emergence, preemergence, read-out: Velvetleaf plant response rating", "in_short": "(§1)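 Sown in loam/sand → sprayed pre-emergence; or grown to 1–4 leaves in peat mix → sprayed post-emergence. Same solvent/surfactant formulation both ways. Greenhouse 13–15 d. Score 0–100 visual.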"}, "ragweed [1]": {"test_system": "ragweed", "test": "Test C preemergence", "format": "in vivo, Ambrosia elatior", "details": "Ambrosia artemisiifolia, pre-emergence, preemergence, read-out: Ragweed plant response rating", "in_short": "as §1"}, "johnsongrass": {"test_system": "johnsongrass", "test": "Test C preemergence", "format": "in vivo, Sorghum halepense", "details": "Sorghum halepense, pre-emergence, preemergence, read-out: Johnsongrass plant response rating", "in_short": "as §1"}, "soybean": {"test_system": "soybean", "test": "Test C preemergence", "format": "in vivo, Glycine max", "details": "Glycine max, pre-emergence, preemergence, read-out: Soybean plant response rating", "in_short": "as §1"}, "ragweed [2]": {"test_system": "ragweed", "test": "Test A postemergence", "format": "in vivo, Ambrosia elatior", "details": "0 to 100 scale where 0 is no effect and 100 is complete control", "in_short": "(§2)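 Greenhouse pot test, loam/sand soil. Formulation: non-phytotoxic solvent mix plus surfactant. Pre: directed spray onto soil after sowing. Post: plants at 1–2 leaf, 2–10 cm. Rated visually vs untreated controls at ~10 d, 0 (no effect) to 100 (complete control).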"}, "kochia [3]": {"test_system": "kochia", "test": "Test A preemergence", "format": "in vivo, Kochia scoparia", "details": "0 to 100 scale where 0 is no effect and 100 is complete control", "in_short": "as §2"}, "blackgrass": {"test_system": "blackgrass", "test": "Test C preemergence", "format": "in vivo, Alopecurus myosuroides", "details": "Alopecurus myosuroides, pre-emergence", "in_short": "as §1"}, "Italian ryegrass": {"test_system": "Italian ryegrass", "test": "Test C preemergence", "format": "in vivo, Lolium multiflorum", "details": "Lolium multiflorum, pre-emergence, preemergence, read-out: Ryegrass, Italian plant response rating", "in_short": "as §1"}, "wheat, winter": {"test_system": "wheat, winter", "test": "Test C preemergence", "format": "in vivo, Triticum aestivum", "details": "Triticum aestivum, pre-emergence, preemergence, read-out: Wheat plant response rating", "in_short": "as §1"}, "lambsquarters": {"test_system": "lambsquarters", "test": "Test C preemergence", "format": "in vivo, Chenopodium album", "details": "Chenopodium album, pre-emergence, preemergence, read-out: Lambsquarters plant response rating", "in_short": "as §1"}, "barnyardgrass": {"test_system": "barnyardgrass", "test": "Test C preemergence", "format": "in vivo, Echinochloa crus-galli", "details": "Echinochloa crus-galli, pre-emergence", "in_short": "as §1"}, "giant foxtail": {"test_system": "giant foxtail", "test": "Test C preemergence", "format": "in vivo, Setaria faberii", "details": "Setaria faberi, pre-emergence", "in_short": "as §1"}, "oilseed rape": {"test_system": "oilseed rape", "test": "Test C preemergence", "format": "in vivo, Brassica napus", "details": "Brassica napus, pre-emergence, preemergence, read-out: Oilseed Rape plant response rating", "in_short": "as §1"}, "morningglory": {"test_system": "morningglory", "test": "Test C preemergence", "format": "in vivo, Ipomoea coccinea", "details": "Ipomoea, pre-emergence, preemergence, read-out: Morningglory plant response rating", "in_short": "as §1"}, "corn": {"test_system": "corn", "test": "Test C preemergence", "format": "in vivo, Zea mays", "details": "Zea mays, pre-emergence", "in_short": "as §1"}, "kochia [4]": {"test_system": "kochia", "test": "Test A postemergence", "format": "in vivo, Kochia scoparia", "details": "0 to 100 scale where 0 is no effect and 100 is complete control", "in_short": "as §2"}, "galium": {"test_system": "galium", "test": "Test C preemergence", "format": "in vivo, Galium aparine", "details": "Galium, pre-emergence", "in_short": "as §1"}, "[5]": {"details": "16 g ai/ha, scale 0 to 100 (0 no effect, 100 complete control)"}, "[6]": {"details": "62 g ai/ha, scale 0 (no effect) to 100 (complete control)"}, "[7]": {"details": "125 g ai/ha, scale 0 (no effect) to 100 (complete control)"}}, "data": [{"smiles": "FC(F)c1cn(-c2ccccc2Oc2ncc(Cl)cn2)nn1", "note": "[Compound 147, 5-chloro-2-[2-[4-(difluoromethyl)-1H-1,2,3-triazol-1-yl]phenoxy]pyrimidine]", "values": [{"measurement": "pest or weed control at 16 g/ha", "setting": "velvetleaf; [5]", "result": 100, "unit": "%"}, {"measurement": "pest or weed control at 62 g/ha", "setting": "velvetleaf; [6]", "result": 100, "unit": "%"}, {"measurement": "pest or weed control at 125 g/ha", "setting": "velvetleaf; [7]", "result": 100, "unit": "%"}, {"measurement": "pest or weed control at 16 g/ha", "setting": "ragweed [1]; [5]", "result": 75, "unit": "%"}, {"measurement": "pest or weed control at 62 g/ha", "setting": "ragweed [1]; [6]", "result": 98, "unit": "%"}, {"measurement": "pest or weed control at 125 g/ha", "setting": "ragweed [1]; [7]", "result": 100, "unit": "%"}, {"measurement": "pest or weed control at 16 g/ha", "setting": "johnsongrass; [5]", "result": 10, "unit": "%"}, {"measurement": "pest or weed control at 62 g/ha", "setting": "johnsongrass; [6]", "result": 80, "unit": "%"}, {"measurement": "pest or weed control at 125 g/ha", "setting": "johnsongrass; [7]", "result": 90, "unit": "%"}, {"measurement": "plant injury at 16 g/ha", "setting": "soybean; [5]", "result": 85, "unit": "%"}, {"measurement": "plant injury at 62 g/ha", "setting": "soybean; [6]", "result": 95, "unit": "%"}, {"measurement": "plant injury at 125 g/ha", "setting": "soybean; [7]", "result": 95, "unit": "%"}, {"measurement": "Ragweed plant response rating", "setting": "ragweed [2]; 125 g ai/ha", "result": 100}, {"measurement": "Plant response rating, Ragweed", "setting": "ragweed [2]; 500 g ai/ha", "result": 100}, {"measurement": "Plant response rating, Kochia", "setting": "kochia [3]; 125 g ai/ha", "result": 100}, {"measurement": "Kochia plant response rating", "setting": "kochia [3]; 500 g ai/ha", "result": 100}, {"measurement": "pest or weed control at 16 g/ha", "setting": "blackgrass; 16 g ai/ha, preemergence, scale 0 to 100 (0 no effect, 100 complete control), read-out: Blackgrass plant response rating", "result": 0, "unit": "%"}, {"measurement": "pest or weed control at 62 g/ha", "setting": "blackgrass; 62 g ai/ha, preemergence, scale 0 (no effect) to 100 (complete control), read-out: Blackgrass plant response rating", "result": 50, "unit": "%"}, {"measurement": "pest or weed control at 125 g/ha", "setting": "blackgrass; 125 g ai/ha, preemergence, scale 0 (no effect) to 100 (complete control), read-out: Blackgrass plant response rating", "result": 90, "unit": "%"}, {"measurement": "pest or weed control at 31 g/ha", "setting": "blackgrass; Preemergence, 31 g ai/ha, scale 0 to 100, 0 no effect, 100 complete control, read-out: Plant response rating, Blackgrass", "result": 40, "unit": "%"}, {"measurement": "pest or weed control at 16 g/ha", "setting": "Italian ryegrass; [5]", "result": 0, "unit": "%"}, {"measurement": "pest or weed control at 62 g/ha", "setting": "Italian ryegrass; [6]", "result": 50, "unit": "%"}, {"measurement": "pest or weed control at 125 g/ha", "setting": "Italian ryegrass; [7]", "result": 70, "unit": "%"}, {"measurement": "plant injury at 16 g/ha", "setting": "wheat, winter; [5]", "result": 0, "unit": "%"}, {"measurement": "plant injury at 62 g/ha", "setting": "wheat, winter; [6]", "result": 0, "unit": "%"}, {"measurement": "plant injury at 125 g/ha", "setting": "wheat, winter; [7]", "result": 25, "unit": "%"}, {"measurement": "pest or weed control at 16 g/ha", "setting": "lambsquarters; [5]", "result": 100, "unit": "%"}, {"measurement": "pest or weed control at 62 g/ha", "setting": "lambsquarters; [6]", "result": 100, "unit": "%"}, {"measurement": "pest or weed control at 125 g/ha", "setting": "lambsquarters; [7]", "result": 100, "unit": "%"}, {"measurement": "pest or weed control at 16 g/ha", "setting": "barnyardgrass; 16 g ai/ha, preemergence, scale 0 to 100 (0 no effect, 100 complete control), read-out: Barnyardgrass plant response rating", "result": 10, "unit": "%"}, {"measurement": "pest or weed control at 62 g/ha", "setting": "barnyardgrass; 62 g ai/ha, preemergence, scale 0 (no effect) to 100 (complete control), read-out: Barnyardgrass plant response rating", "result": 90, "unit": "%"}, {"measurement": "pest or weed control at 125 g/ha", "setting": "barnyardgrass; 125 g ai/ha, preemergence, scale 0 (no effect) to 100 (complete control), read-out: Barnyardgrass plant response rating", "result": 100, "unit": "%"}, {"measurement": "pest or weed control at 31 g/ha", "setting": "barnyardgrass; Preemergence, 31 g ai/ha, scale 0 to 100, 0 no effect, 100 complete control, read-out: Plant response rating, Barnyardgrass", "result": 80, "unit": "%"}, {"measurement": "pest or weed control at 16 g/ha", "setting": "giant foxtail; 16 g ai/ha, preemergence, scale 0 to 100 (0 no effect, 100 complete control), read-out: Foxtail, Giant plant response rating", "result": 70, "unit": "%"}, {"measurement": "pest or weed control at 62 g/ha", "setting": "giant foxtail; 62 g ai/ha, preemergence, scale 0 (no effect) to 100 (complete control), read-out: Foxtail, Giant plant response rating", "result": 100, "unit": "%"}, {"measurement": "pest or weed control at 125 g/ha", "setting": "giant foxtail; 125 g ai/ha, preemergence, scale 0 (no effect) to 100 (complete control), read-out: Foxtail, Giant plant response rating", "result": 100, "unit": "%"}, {"measurement": "pest or weed control at 31 g/ha", "setting": "giant foxtail; Preemergence, 31 g ai/ha, scale 0 to 100, 0 no effect, 100 complete control, read-out: Plant response rating, Foxtail, Giant", "result": 100, "unit": "%"}, {"measurement": "plant injury at 16 g/ha", "setting": "oilseed rape; [5]", "result": 100, "unit": "%"}, {"measurement": "plant injury at 62 g/ha", "setting": "oilseed rape; [6]", "result": 100, "unit": "%"}, {"measurement": "plant injury at 125 g/ha", "setting": "oilseed rape; [7]", "result": 100, "unit": "%"}, {"measurement": "pest or weed control at 16 g/ha", "setting": "morningglory; [5]", "result": 40, "unit": "%"}, {"measurement": "pest or weed control at 62 g/ha", "setting": "morningglory; [6]", "result": 95, "unit": "%"}, {"measurement": "pest or weed control at 125 g/ha", "setting": "morningglory; [7]", "result": 100, "unit": "%"}, {"measurement": "plant injury at 16 g/ha", "setting": "corn; 16 g ai/ha, preemergence, scale 0 to 100 (0 no effect, 100 complete control), read-out: Corn plant response rating", "result": 0, "unit": "%"}, {"measurement": "plant injury at 62 g/ha", "setting": "corn; 62 g ai/ha, preemergence, scale 0 (no effect) to 100 (complete control), read-out: Corn plant response rating", "result": 20, "unit": "%"}, {"measurement": "plant injury at 125 g/ha", "setting": "corn; 125 g ai/ha, preemergence, scale 0 (no effect) to 100 (complete control), read-out: Corn plant response rating", "result": 35, "unit": "%"}, {"measurement": "Corn plant response rating (crop injury, 0 = no effect, 100 = complete kill) at 31 g/ha", "setting": "corn; Preemergence, 31 g ai/ha, scale 0 to 100, 0 no effect, 100 complete control", "result": 0, "unit": "%"}, {"measurement": "Kochia plant response rating", "setting": "kochia [4]; 125 g ai/ha", "result": 100}, {"measurement": "Plant response rating, Kochia", "setting": "kochia [4]; 500 g ai/ha", "result": 100}, {"measurement": "pest or weed control at 16 g/ha", "setting": "galium; 16 g ai/ha, preemergence, scale 0 to 100 (0 no effect, 100 complete control), read-out: Galium plant response rating", "result": 90, "unit": "%"}, {"measurement": "pest or weed control at 62 g/ha", "setting": "galium; 62 g ai/ha, preemergence, scale 0 (no effect) to 100 (complete control), read-out: Galium plant response rating", "result": 98, "unit": "%"}, {"measurement": "pest or weed control at 125 g/ha", "setting": "galium; 125 g ai/ha, preemergence, scale 0 (no effect) to 100 (complete control), read-out: Galium plant response rating", "result": 98, "unit": "%"}, {"measurement": "pest or weed control at 31 g/ha", "setting": "galium; Preemergence, 31 g ai/ha, scale 0 to 100, 0 no effect, 100 complete control, read-out: Plant response rating, Galium", "result": 98, "unit": "%"}]}]}
